The numbers were not newly measured in the CATMoS acute toxicity set (Mansouri et al. 2021), which cites them from elsewhere.

The structures appear in SMILES notation. “And” between values parts separate entries of the source, which are not always exact repeats. Equal entries are not always repeated.

A short description of the series: rat acute oral toxicity. Particulars: in vivo.
For orientation: LD50 means the dose at which mortality reaches 50%. With `COc1cccc(C=Nc2c(C)n(C)n(-c3ccccc3)c2=O)c1`, the LD50 was 5600 mg/kg. Consider `CCOC(=O)C(N)Cc1ccc(O)cc1` (stereo not drawn), for which the LD50 is 13800 mg/kg. Take `Clc1cc(Cl)c2nsnc2c1Cl`: the LD50 was 1620 mg/kg. For the compound `CC1=CC=C(C(C)C)CC1`, the LD50 was 1680 mg/kg. `CCOP(=S)(OCC)Oc1cc(C)c(SC)c(C)c1`: the LD50 was 375 mg/kg. For the compound `CCC(=O)OCc1ccc(OC)cc1`, the LD50 was 3330 mg/kg.

For the compound `Cc1ccccc1OCC(COC(O)C(Cl)(Cl)Cl)OC(O)C(Cl)(Cl)Cl` (stereo not drawn), the LD50 is 880 mg/kg. As to `COc1ccc(S(=O)(=O)Nc2nnc(CC(C)C)s2)cc1`, the LD50 is 534 mg/kg. As to `O=C(O)C1C(C(=O)O)C2(Cl)C(Cl)=C(Cl)C1(Cl)C2(Cl)Cl` (stereo not drawn), the LD50 was 1770 mg/kg. With `COc1ccc2c(c1)OC(C)(C)[C@H](c1ccccc1)[C@H]2c1ccc(OCCBr)cc1`, the LD50 is 500 mg/kg.

For `Cc1ccc(Cl)cc1Cl`, the LD50 is 2400 mg/kg. As for `COc1cc(Oc2ccc(Cl)cc2Cl)ccc1[N+](=O)[O-]`, the LD50 was 18000 mg/kg. Consider `C=CCOc1ccccc1C(N)=O`, for which the LD50 is 780 mg/kg. Take `COc1ccccc1S`: the LD50 is 1740 mg/kg.

Turning to `NC(=O)OC[C@H](O)[C@@H](O)[C@H](N)C(=O)N[C@@H](C(=O)O)[C@H]1O[C@@H](n2cc(CO)c(=O)[nH]c2=O)[C@H](O)[C@@H]1O`, the LD50 is 14700 mg/kg.

As to `COP(=O)(OC)Oc1cc(C)n(C)c(=O)c1`, the 50% lethal dose (LD50) was 2.91 mg/kg. On to `CCS(=O)CC`, for which the LD50 was 5650 mg/kg. For the compound `COC(=O)C1=C(C)NC(C)=C(C(=O)OCC(C)(C)CN(C)Cc2ccccc2)C1c1cc([N+](=O)[O-])ccc1F` (stereo not drawn), the LD50 was 30.5 mg/kg. As to `CC(C)COCC(CN(Cc1ccccc1)c1ccccc1)N1CCCC1` (stereo not drawn), the LD50 is 6850 mg/kg. Turning to `Cc1ccc(O)c([N+](=O)[O-])c1`, the LD50 is 3360 mg/kg. As to `CCCC(Cn1cncn1)c1ccc(Cl)cc1Cl` (stereo not drawn), the LD50 is 2120 mg/kg. In the case of `CC(CCc1ccc(O)cc1)NCCc1ccc(O)c(O)c1` (stereo not drawn), the LD50 is 2300 mg/kg. Regarding `COc1ccc(C(=C(C#N)CCC(=O)O)c2ccc(OC)cc2)cc1`, the LD50 is 337 mg/kg. As to `CCCCNC(=S)Nc1ccccc1`, the LD50 was 150 mg/kg.

On to `FC(Cl)(Cl)c1ccccc1`, for which the 50% lethal dose (LD50) is 450 mg/kg.

On to `Cc1ccc2c(c1)C(N1CCN(C)CC1)=Nc1ccccc1S2`, for which the LD50 is 934 mg/kg. With `C=C(C)C1CC=C(C=NO)CC1` (stereo not drawn), the LD50 was 2500 mg/kg. Turning to `CC1(C)CCCO1`, the LD50 is 4000 mg/kg. Take `O=C(NCCN1CCOCC1)c1ccc(Cl)cc1`: the LD50 was 707 mg/kg. For `CCCOP(=S)(OC)SCN1C(=O)c2ccccc2C1=O` (stereo not drawn), the LD50 is 90 mg/kg. As for `C=CC1OCC2(CO1)COC(C=C)OC2` (stereo not drawn), the LD50 is 3250 mg/kg. For the compound `CCN(CC)CCN(C)n1cc(-c2ccccc2)c2ccccc21`, the LD50 was 650 mg/kg. As to `CCCCCCCCCCCCCCCCCCOC(=O)Cc1ccc(N(CCCl)CCCl)cc1`, the LD50 was 200 mg/kg. Take `CC=CC(C)OC` (stereo not drawn): the LD50 was 1210 mg/kg. Take `CCOP(=S)(OCC)Oc1ccc(Cl)c([N+](=O)[O-])c1`: the LD50 was 100 mg/kg. Take `CN(C)c1ccc(-c2nc(=O)n(C)nc2-c2ccc(N(C)C)cc2)cc1`: the LD50 was 3000 mg/kg.

For the compound `N#CCc1ccccc1`, the LD50 was 270 mg/kg.

Regarding `FC(F)(F)c1nc2c(Cl)c(Br)c(Cl)c(Br)c2[nH]1`, the LD50 is 3.43 mg/kg.

With `O=C(O)c1nn(Cc2ccc(Cl)cc2)c2ccccc12`, the LD50 was 1140 mg/kg. On to `CN(N=O)c1ccc(N=Nc2ccccc2)cc1`, for which the LD50 is 1200 mg/kg. Turning to `COc1ccccc1NC(=O)C(N=Nc1ccc(-c2ccc(N=NC(C(C)=O)C(=O)Nc3ccccc3OC)c(Cl)c2)cc1Cl)C(C)=O` (stereo not drawn), the LD50 is 2230 mg/kg.

`Cc1ccc(C(=O)c2ccc(CC(=O)N3CCN(C)CC3)n2C)cc1`: the LD50 was 1000 mg/kg.

For `O=C(c1ccccc1)c1ccc(O)cc1`, the LD50 was 12100 mg/kg. In the case of `O=COCCOC=O`, the LD50 is 1510 mg/kg. Take `CN(C)c1ccncc1`: the LD50 was 250 mg/kg. Turning to `Nc1c([N+](=O)[O-])cc(Cl)cc1[N+](=O)[O-]`, the LD50 is 400 mg/kg.

With `CN(C)CCCN1c2ccccc2Sc2ccccc21`, the median lethal dose (LD50) is 350 mg/kg and 400 mg/kg.

As for `Cc1cc(Cl)ccc1/N=C/N(C)C`, the LD50 was 225 mg/kg. On to `CC(C)(S)C(N)C(=O)O` (racemic), for which the LD50 was 365 mg/kg. On to `CCCC(C)C(c1ccc(O)cc1)C(C)C` (stereo not drawn), for which the median lethal dose (LD50) was 1900 mg/kg. On to `COc1ccc2c(c1)c(CC(=O)Oc1ccc(NC(C)=O)cc1)c(C)n2C(=O)c1ccc(Cl)cc1`, for which the LD50 was 887 mg/kg.

Regarding `O=C(O)c1c(Cl)c(Cl)c(Cl)c(Cl)c1C1c2cc(Br)c(O)c(Br)c2Oc2c1cc(Br)c(O)c2Br`, the median lethal dose (LD50) is 8400 mg/kg.

For `C#CCOP(=O)(OCCC)c1ccccc1` (stereo not drawn), the LD50 was 362 mg/kg. On to `CCCN(CCC)S(=O)(=O)CCNC(=O)N(CCCl)N=O`, for which the LD50 was 250 mg/kg. `CC[N+]1(CC)CCC(=C(c2ccccc2)c2ccccc2)C1C` (stereo not drawn): the LD50 was 1090 mg/kg. Regarding `NCCOCCO`, the LD50 was 3000 mg/kg.

On to `O=C1c2ccccc2C(=O)C1C(=O)C(c1ccccc1)c1ccccc1`, for which the LD50 was 1.5 mg/kg. `CC(C)(C)c1cc(Br)c2nc(C(F)(F)F)[nH]c2c1`: the LD50 was 161 mg/kg. For `O=C(c1ccccc1)c1ccc(O)cc1O`, the LD50 is 8600 mg/kg. As for `CCN(CC)C(=O)c1ccccc1C`, the LD50 is 1210 mg/kg. With `C[N@+]12CCCC[C@@H]1CCC(=C(c1cccs1)c1cccs1)C2`, the LD50 is 1180 mg/kg. On to `O=C1C(Cl)=C(NC(=O)C(Cl)Cl)C(=O)c2ccccc21`, for which the LD50 was 11700 mg/kg. With `CCc1c(C)nc2cccc(C)n2c1=O`, the LD50 is 690 mg/kg. In the case of `CN(C)C(O)=Nc1ccc(-n2nc(C(C)(C)C)oc2=O)c(Cl)c1`, the LD50 is 1000 mg/kg. On to `Clc1ccc(Cn2c(CN3CCCC3)nc3ccccc32)cc1`, for which the LD50 was 1950 mg/kg. `N#CSc1ccc(N)cc1`: the LD50 is 240 mg/kg.

As for `COc1cccc(O)c1`, the LD50 is 597 mg/kg. On to `CC(CCC(=O)O)C(=O)O` (stereo not drawn), for which the LD50 is 300 mg/kg. For the compound `CCCCCCCC/C=C\CCCCCCCC[N+](C)(C)CC`, the LD50 was 500 mg/kg.

Consider `CCC(=O)c1ccc(N)cc1`, for which the LD50 is 177 mg/kg. Turning to `NC(=O)C(c1ccccc1)c1ccccc1`, the LD50 is 600 mg/kg. Consider `CNC(=O)Oc1ccc(CC#N)cc1`, for which the LD50 is 511 mg/kg. On to `CC(C)OC(=S)S`, for which the LD50 is 1700 mg/kg and 1250 mg/kg. Turning to `CCOP(=S)(OCC)Oc1ccc([N+](=O)[O-])cc1Cl`, the LD50 was 10 mg/kg. For `Clc1cc(Cl)c(Cl)c(-c2cc(Cl)c(-c3cc(Cl)c(Cl)c(Cl)c3)c(Cl)c2Cl)c1`, the LD50 is 19200 mg/kg. For `O=c1c(F)cn(C2CCCO2)c(=O)n1C1CCCO1` (stereo not drawn), the 50% lethal dose (LD50) was 1730 mg/kg. Turning to `C/C(=N/Nc1nc(C)cc(C)n1)c1ccccc1C`, the LD50 is 525 mg/kg. Turning to `C=CCSC1=NCCS1`, the LD50 was 110 mg/kg. Take `CNC(=O)Oc1ccccc1CCCSC`: the LD50 is 220 mg/kg.

As for `CCCCNC(=O)n1c(NC(=O)OC)nc2ccccc21`, the LD50 is 10000 mg/kg. For the compound `CC(C(=O)O)c1ccc(N2CC3=C(CC=CC3)C2=O)cc1` (stereo not drawn), the LD50 is 328 mg/kg. For the compound `Cc1[nH]c(=O)c(C#N)cc1-c1ccncc1`, the LD50 was 91 mg/kg. As to `CNC(=O)ON=C(C)C(C)SC` (stereo not drawn), the LD50 is 153 mg/kg. As to `CCCCC(CC)CCC(CCC(CC)CC)OS(=O)(=O)O` (stereo not drawn), the LD50 was 1430 mg/kg. In the case of `Clc1cccc(N2CCNCC2)c1`, the LD50 was 142 mg/kg. Regarding `CCCCCCCCCCCCNC(N)=S`, the 50% lethal dose (LD50) was 1000 mg/kg. With `CC(C)NC(=N)NC(=N)Nc1ccc(Cl)cc1`, the LD50 is 58 mg/kg.

As for `Cc1c(-c2ccccc2)oc2c(C(=O)OC(C)(C)CN3CCCCC3)cccc2c1=O`, the LD50 is 1980 mg/kg.

With `O=C(O)C(F)(F)C(F)(F)C(F)(F)C(F)(F)C(F)(F)C(F)(F)C(F)(F)F`, the LD50 was 430 mg/kg. In the case of `CCCCCCCCCCCCCCCCOC(=O)Cc1ccc(N(CCCl)CCCl)cc1`, the LD50 is 100 mg/kg.

`CC(C)CCCC(C)(C)O`: the LD50 is 6800 mg/kg. Regarding `C(=Nc1ccccc1)Nc1ccccc1`, the LD50 is 1900 mg/kg. Take `CN1CCC(OC(=O)COc2ccc(Cc3ccc(Cl)cc3)cc2)CC1`: the LD50 was 1900 mg/kg. As to `COc1cc(S(C)=O)ccc1-c1nc2ncccc2[nH]1` (stereo not drawn), the LD50 is 315 mg/kg.

For `O=C(Cl)OCc1ccccc1`, the LD50 is 3000 mg/kg. For the compound `CCCOCCN(C(=O)CCl)c1c(CC)cccc1CC`, the LD50 is 2200 mg/kg. As to `CC=C(C(=O)NC(N)=O)C(C)C`, the LD50 was 9000 mg/kg. As to `Nc1ccc(CCNCC(O)c2ccccc2)cc1` (stereo not drawn), the LD50 is 200 mg/kg. For the compound `COc1ccc(C[C@H]2NC[C@H](O)[C@H]2OC(C)=O)cc1`, the LD50 was 72 mg/kg.

For the compound `CC(C)=CC(N)=O`, the LD50 is 3560 mg/kg. With `Oc1ccc(Cl)c(O)c1`, the LD50 is 369 mg/kg. In the case of `C=COCCOC`, the LD50 was 3900 mg/kg. Take `FC(F)(F)C(F)(Br)Br`: the LD50 was 54600 mg/kg.

As to `CCOP(=S)(OCC)ON1C(=O)c2cccc3cccc(c23)C1=O`, the LD50 was 500 mg/kg. For `CC(C)=CCl`, the LD50 was 4460 mg/kg. `CCOC(=O)C1=CN(C(=O)c2ccccc2)C2CCCC(C)N2C1=O` (stereo not drawn): the LD50 is 1640 mg/kg. With `O=C(CCCN1CCC(n2c(=S)[nH]c3ccccc32)CC1)c1ccc(F)cc1`, the LD50 was 232 mg/kg. Turning to `CCCCN(CCO)CCCC`, the LD50 is 1070 mg/kg.

In the case of `O=COCCc1ccccc1`, the LD50 was 3220 mg/kg. As for `C[C@@H](NCCc1ccc(O)cc1)[C@@H](O)c1ccc(O)cc1` (racemic), the LD50 was 1840 mg/kg.

Regarding `COC(OC)c1ccccc1[N+](=O)[O-]`, the LD50 is 3420 mg/kg.

As for `O=C(NC(O)C(Cl)(Cl)Cl)NC(O)C(Cl)(Cl)Cl` (stereo not drawn), the LD50 was 6400 mg/kg. Consider `CCC(O)(COC(N)=O)c1ccccc1` (stereo not drawn), for which the LD50 was 607 mg/kg. Take `c1nnc(NCNc2nncs2)s1`: the LD50 is 260 mg/kg. As to `FC(F)(F)C(F)(F)C(F)(F)C(F)(F)C(F)(F)C(F)(F)CCI`, the LD50 was 3870 mg/kg.

On to `Cc1ccccc1-n1c(C)nc2ccccc2c1=O`, for which the LD50 is 185 mg/kg. On to `C=Cc1ccc(C=O)o1`, for which the LD50 is 2080 mg/kg. For `CC(F)(F)C(F)(F)C(F)(F)C(O)(F)F`, the LD50 is 1110 mg/kg. Take `CC(CN1c2ccccc2Sc2cccnc21)N(C)C` (stereo not drawn): the LD50 was 1220 mg/kg. Turning to `CCC(O)CC`, the LD50 is 1870 mg/kg. Regarding `CC1(C)COC1=O`, the LD50 was 1470 mg/kg. As for `Cc1cc(O)ccc1S(C)(=O)=O`, the LD50 was 7000 mg/kg. `O=C(CCC(=O)OC1CCCCC1)OC1CCCCC1`: the LD50 was 12000 mg/kg.
